The text below walks through data of paper PMC7719162, “Positioning of an unprecedented spiro[5.5]undeca ring system into kinase inhibitor space” (Scientific Reports, 2020).

One experiment concerns the target T1, EIF2AK4 (Homo sapiens, UniProt Q9P2K8).
T1 construct: purchased Reaction Biology Corp
Description: Kinase panel assay (radiolabelled). The experiment is classed as biochemical. The settings on record: 30 μM compound, ATP 10 μM, duplicates Data 1/Data 2.

The next experiment addresses T2, RIPK5 (Homo sapiens, UniProt Q6XUX3).
T2 construct: purchased Reaction Biology Corp
T2 sequence (Q6XUX3 1-929): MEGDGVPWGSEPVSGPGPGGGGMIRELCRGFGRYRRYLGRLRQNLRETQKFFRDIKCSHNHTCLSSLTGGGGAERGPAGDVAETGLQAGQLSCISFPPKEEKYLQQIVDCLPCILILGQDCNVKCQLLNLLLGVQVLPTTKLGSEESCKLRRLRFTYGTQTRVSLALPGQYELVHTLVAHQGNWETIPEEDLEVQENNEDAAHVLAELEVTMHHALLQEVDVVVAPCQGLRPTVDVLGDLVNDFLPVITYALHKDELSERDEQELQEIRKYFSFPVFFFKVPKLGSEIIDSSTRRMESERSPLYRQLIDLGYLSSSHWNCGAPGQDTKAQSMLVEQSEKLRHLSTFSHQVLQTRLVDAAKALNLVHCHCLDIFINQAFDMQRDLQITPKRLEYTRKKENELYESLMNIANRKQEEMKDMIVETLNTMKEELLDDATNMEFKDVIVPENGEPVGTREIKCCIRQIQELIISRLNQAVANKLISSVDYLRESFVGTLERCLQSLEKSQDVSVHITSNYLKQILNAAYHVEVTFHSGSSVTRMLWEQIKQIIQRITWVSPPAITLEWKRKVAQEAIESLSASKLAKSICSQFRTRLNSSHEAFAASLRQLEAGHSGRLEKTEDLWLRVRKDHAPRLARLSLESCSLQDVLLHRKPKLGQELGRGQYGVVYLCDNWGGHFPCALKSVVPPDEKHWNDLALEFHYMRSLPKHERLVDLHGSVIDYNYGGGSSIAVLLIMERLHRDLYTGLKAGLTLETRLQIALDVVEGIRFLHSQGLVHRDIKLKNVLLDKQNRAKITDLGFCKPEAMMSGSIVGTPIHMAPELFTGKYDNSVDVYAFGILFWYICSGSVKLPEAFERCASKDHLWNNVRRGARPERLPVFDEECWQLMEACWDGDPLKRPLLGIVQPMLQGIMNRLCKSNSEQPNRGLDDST
The experiment in a line: Kinase panel assay (radiolabelled). The experiment is classed as biochemical. The note with it: ATP 10 μM.

The next experiment concerns the target T3, TRKA (G667C) (Homo sapiens, UniProt P04629, G667C).
T3 construct: purchased Reaction Biology Corp
Description: Kinase panel assay (radiolabelled). It counts as biochemical. The note with it: 30 μM compound, ATP 10 μM, duplicates Data 1/Data 2.

For a further experiment, the target named is T4, TRKC (G623R) (Homo sapiens, UniProt Q16288, G623R).
T4 construct: purchased Reaction Biology Corp
Description: Kinase panel assay (radiolabelled). It counts as biochemical. The settings on record: 30 μM compound, ATP 10 μM, duplicates Data 1/Data 2.

The next experiment addresses T5, PI4Kb (Homo sapiens, UniProt Q9UBF8).
T5 construct: purchased Reaction Biology Corp
The experiment in a line: Kinase panel assay (lipid kinase). The experiment is classed as biochemical. The settings on record: 30 μM compound, ATP 10 μM, duplicates Data 1/Data 2.

In another experiment the target is GSK3β (Homo sapiens, UniProt P49841). Description: GSK3β radiolabelled kinase assay (% residual activity, IC50, ATP competition). It counts as biochemical.
Another experiment has as its target T6, ROCK2 (Homo sapiens, UniProt O75116).
T6 construct: purchased Reaction Biology Corp
The settings on record: cited from earlier work.

Where [1] appears, read: read-out: % Enzyme Activity (relative to DMSO controls).

Read-outs that look alike come from different tables or passages of the source.

T3 sequence (P04629 33-796 G667C): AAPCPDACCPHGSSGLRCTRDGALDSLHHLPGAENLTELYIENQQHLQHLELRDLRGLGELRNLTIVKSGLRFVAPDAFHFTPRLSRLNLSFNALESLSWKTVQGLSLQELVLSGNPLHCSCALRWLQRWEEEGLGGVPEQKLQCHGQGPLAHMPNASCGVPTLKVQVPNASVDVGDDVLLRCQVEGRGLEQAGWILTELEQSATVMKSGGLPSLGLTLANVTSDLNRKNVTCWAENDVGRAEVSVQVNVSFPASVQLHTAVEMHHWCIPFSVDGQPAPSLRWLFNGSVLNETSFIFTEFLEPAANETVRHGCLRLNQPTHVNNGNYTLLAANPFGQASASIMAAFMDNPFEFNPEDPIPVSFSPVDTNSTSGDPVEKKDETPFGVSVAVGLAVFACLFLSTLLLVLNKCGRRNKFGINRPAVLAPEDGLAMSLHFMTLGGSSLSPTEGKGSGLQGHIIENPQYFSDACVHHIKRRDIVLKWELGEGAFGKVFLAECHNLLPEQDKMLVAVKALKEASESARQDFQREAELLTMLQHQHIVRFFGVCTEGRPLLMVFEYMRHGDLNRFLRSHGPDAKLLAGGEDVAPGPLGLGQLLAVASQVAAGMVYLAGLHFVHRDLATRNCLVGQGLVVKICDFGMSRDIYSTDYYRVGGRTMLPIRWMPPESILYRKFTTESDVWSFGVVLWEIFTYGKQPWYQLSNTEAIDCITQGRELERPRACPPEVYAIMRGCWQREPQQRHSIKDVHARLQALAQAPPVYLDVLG
Sequence of GSK3β (P49841 whole entry): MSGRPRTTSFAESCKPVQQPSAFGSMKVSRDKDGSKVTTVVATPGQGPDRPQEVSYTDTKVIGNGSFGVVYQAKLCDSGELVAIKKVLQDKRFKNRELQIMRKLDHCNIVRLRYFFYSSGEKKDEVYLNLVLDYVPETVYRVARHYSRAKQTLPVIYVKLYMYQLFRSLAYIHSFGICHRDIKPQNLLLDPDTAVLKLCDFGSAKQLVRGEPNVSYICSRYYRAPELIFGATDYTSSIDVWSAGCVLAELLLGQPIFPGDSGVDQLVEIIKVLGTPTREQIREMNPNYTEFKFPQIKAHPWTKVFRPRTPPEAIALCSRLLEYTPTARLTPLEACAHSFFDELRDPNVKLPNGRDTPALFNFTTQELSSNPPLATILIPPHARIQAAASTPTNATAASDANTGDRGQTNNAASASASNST
T1 sequence (Q9P2K8 whole entry): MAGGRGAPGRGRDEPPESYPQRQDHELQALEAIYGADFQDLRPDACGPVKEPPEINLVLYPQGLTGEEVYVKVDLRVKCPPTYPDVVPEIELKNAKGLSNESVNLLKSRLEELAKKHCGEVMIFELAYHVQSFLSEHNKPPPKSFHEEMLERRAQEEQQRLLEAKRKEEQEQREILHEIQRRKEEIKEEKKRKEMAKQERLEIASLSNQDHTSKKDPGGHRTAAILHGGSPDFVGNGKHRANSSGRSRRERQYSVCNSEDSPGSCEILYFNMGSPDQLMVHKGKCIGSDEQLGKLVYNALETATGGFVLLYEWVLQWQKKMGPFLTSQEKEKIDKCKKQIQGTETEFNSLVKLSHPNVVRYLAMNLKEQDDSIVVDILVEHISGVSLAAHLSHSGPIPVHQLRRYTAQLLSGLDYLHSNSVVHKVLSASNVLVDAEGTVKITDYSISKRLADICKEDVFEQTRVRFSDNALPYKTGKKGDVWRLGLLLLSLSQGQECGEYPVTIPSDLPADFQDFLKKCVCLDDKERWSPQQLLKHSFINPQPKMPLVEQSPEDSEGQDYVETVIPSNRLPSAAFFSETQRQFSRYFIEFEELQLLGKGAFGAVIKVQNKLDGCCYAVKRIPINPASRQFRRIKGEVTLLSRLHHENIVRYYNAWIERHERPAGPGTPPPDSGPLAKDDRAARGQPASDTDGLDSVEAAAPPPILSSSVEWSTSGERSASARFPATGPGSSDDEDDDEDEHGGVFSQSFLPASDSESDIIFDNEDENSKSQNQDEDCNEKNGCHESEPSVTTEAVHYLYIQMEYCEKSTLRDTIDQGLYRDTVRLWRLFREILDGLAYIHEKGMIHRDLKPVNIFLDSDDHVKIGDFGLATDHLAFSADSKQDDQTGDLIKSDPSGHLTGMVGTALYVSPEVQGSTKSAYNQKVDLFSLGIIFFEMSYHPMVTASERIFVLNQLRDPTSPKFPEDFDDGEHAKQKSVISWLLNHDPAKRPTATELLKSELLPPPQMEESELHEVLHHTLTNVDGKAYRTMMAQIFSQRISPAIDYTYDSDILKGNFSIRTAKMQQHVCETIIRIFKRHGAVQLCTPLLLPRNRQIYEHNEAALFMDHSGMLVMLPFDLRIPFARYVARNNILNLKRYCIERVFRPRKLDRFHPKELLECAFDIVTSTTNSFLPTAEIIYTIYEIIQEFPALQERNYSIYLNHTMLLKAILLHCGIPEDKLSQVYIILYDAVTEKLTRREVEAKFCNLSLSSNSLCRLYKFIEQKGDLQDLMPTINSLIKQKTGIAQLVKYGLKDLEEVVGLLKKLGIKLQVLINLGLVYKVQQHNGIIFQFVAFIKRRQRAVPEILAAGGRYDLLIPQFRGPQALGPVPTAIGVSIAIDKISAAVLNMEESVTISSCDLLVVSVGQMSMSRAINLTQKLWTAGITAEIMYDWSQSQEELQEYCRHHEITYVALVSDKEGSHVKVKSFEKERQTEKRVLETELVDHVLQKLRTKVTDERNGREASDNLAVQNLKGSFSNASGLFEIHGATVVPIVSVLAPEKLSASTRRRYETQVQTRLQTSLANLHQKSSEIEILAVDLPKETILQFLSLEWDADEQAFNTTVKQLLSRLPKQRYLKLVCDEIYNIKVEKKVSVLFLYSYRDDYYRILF
T5 sequence (Q9UBF8 whole entry): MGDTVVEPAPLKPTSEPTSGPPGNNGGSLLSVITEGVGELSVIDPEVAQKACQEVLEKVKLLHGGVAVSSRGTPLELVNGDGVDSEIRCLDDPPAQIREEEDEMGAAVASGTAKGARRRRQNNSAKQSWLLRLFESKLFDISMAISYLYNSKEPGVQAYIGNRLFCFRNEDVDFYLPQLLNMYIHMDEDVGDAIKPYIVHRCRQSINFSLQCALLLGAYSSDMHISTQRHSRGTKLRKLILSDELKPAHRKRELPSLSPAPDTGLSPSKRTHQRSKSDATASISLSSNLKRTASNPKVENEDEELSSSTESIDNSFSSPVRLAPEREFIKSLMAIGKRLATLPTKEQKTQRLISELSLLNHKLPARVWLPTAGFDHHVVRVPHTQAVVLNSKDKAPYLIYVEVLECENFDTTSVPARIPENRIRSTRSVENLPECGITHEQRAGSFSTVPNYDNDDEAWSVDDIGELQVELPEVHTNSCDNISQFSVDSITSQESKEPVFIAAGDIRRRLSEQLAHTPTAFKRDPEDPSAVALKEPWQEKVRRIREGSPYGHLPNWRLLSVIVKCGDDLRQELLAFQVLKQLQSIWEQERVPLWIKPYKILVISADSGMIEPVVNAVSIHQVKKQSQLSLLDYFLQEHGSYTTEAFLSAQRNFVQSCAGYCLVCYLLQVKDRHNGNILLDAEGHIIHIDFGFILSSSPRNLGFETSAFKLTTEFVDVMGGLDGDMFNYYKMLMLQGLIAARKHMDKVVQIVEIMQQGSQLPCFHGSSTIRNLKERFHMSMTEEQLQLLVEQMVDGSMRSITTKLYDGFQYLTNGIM
T4 sequence (Q16288 32-839 G623R): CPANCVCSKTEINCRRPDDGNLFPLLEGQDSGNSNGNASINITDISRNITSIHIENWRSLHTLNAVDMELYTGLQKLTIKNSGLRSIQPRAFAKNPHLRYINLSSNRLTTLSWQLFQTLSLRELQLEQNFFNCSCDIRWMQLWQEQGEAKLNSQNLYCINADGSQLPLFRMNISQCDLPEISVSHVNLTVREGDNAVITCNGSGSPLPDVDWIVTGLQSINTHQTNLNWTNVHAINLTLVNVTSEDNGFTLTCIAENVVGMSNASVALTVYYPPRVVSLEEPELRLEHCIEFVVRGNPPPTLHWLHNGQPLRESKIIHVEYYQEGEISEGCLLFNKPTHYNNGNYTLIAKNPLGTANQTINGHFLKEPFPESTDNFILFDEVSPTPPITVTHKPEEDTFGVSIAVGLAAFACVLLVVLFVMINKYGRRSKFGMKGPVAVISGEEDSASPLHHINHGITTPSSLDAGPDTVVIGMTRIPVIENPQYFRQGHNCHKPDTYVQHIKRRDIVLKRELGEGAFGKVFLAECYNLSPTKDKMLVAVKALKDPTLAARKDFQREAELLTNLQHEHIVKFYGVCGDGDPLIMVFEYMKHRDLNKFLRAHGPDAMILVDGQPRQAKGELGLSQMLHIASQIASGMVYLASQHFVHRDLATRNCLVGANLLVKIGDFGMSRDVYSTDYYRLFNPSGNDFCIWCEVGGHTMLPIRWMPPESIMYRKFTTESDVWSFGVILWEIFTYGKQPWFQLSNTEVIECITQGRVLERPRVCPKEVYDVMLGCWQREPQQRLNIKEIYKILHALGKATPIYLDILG

In the case of `O=C1C=CC2(C=C1)OCC(Cc1cn(-c3cccc(Cl)c3)nn1)C(=O)N2c1ccccc1` (centres unmarked) [2d, 3-((1-(3-Chlorophenyl)-1H-1,2,3-triazol-4-yl)methyl)-5-phenyl-1-oxa-5-azaspiro[5.5]undeca-7,10-diene-4,9-dione], the “% Enzyme Activity (relative to DMSO controls)” value on EIF2AK4 was found to be 102.49%; at RIPK5 (30 μM compound, duplicates Data 1/Data 2), 83.85%; at TRKA (G667C), 101.95%; on TRKC (G623R), 90.32%; at PI4Kb, 81.00%. The remaining activity at 30 µM on EIF2AK4 (setting [1]) amounted to 104%; on RIPK5 (30 μM compound, duplicates Data 1/Data 2, read-out: % Enzyme Activity (relative to DMSO controls)), 86.1%; on RIPK5 (30 μM, average ± SD, read-out: % Residual Activity at 30 μM) it was 85 ± 1.6%; on TRKA (G667C) (setting [1]), 103%; at TRKC (G623R) (setting [1]) it was 92.1%; at PI4Kb (setting [1]), 81.6%. The IC50 (commonly the midpoint of a concentration-inhibition curve) on GSK3β (ATP 1 μM (Table 2), read-out: IC50 on GSK3β (converted)) was 7.04 µM. Moreover, on GSK3β (at 10 μM compound), the remaining activity at 10 µM amounted to 51.1 ± 6.1%.
As for `O=C1C=CC2(C=C1)OCC(Cc1cc(C(F)(F)F)cc(C(F)(F)F)c1)C(=O)N2c1ccccc1` (racemic) [1c], at ROCK2, the “% Residual Activity at 30 μM” value is on record as 103.9 ± 2.4%.
